ChEMBL document CHEMBL1201862, “PubChem BioAssay data set” (2004)
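Grown in 96-well plates, cells were treated for 48 hours with each compound at five concentrations. Insufficient inhibition: endpoint recorded as highest concentration tested. Abbreviation: GI50, concentration required for 50% inhibition of growth.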 Active and inactive are the calls of the source. Cut-off read from the data, not from the text of the source: active = GI50 up to about 1.1 µM and inactive = higher.

Assays:
Assay in all cases: NCI tumour cell line growth inhibition, 48 h
SF-539 = tested on: SF-539
SF-268 = tested on: SF-268
NCI-H226 = tested on: NCI-H226
HCC 2998 = tested on: HCC 2998
HL-60 = tested on: HL-60
RXF 393 = tested on: RXF 393
SK-OV-3 = tested on: SK-OV-3
SK-MEL-28 = tested on: SK-MEL-28
SW-620 = tested on: SW-620
MOLT-4 = tested on: MOLT-4
HCT-116 = tested on: HCT-116
SN12C = tested on: SN12C
NCI-H23 = tested on: NCI-H23
KM12 = tested on: KM12
K562 = tested on: K562
RPMI-8226 = tested on: RPMI-8226
COLO 205 = tested on: COLO 205
786-0 = tested on: 786-0
HCT-15 = tested on: HCT-15
A498 = tested on: A498

SMILES	GI50 (SF-539)	GI50 (SF-268)	GI50 (NCI-H226)	GI50 (HCC 2998)	GI50 (HL-60)	GI50 (RXF 393)	GI50 (SK-OV-3)	GI50 (SK-MEL-28)	GI50 (SW-620)	GI50 (MOLT-4)	GI50 (HCT-116)	GI50 (SN12C)	GI50 (NCI-H23)	GI50 (KM12)	GI50 (K562)	GI50 (RPMI-8226)	GI50 (COLO 205)	GI50 (786-0)	GI50 (HCT-15) [µM]	GI50 (A498)
O=c1oc2ccccc2cc1-c1cn2cc(Cl)ccc2n1	1.48 µM (inactive)	1.44 µM (inactive)	15.6 µM (inactive)	1.13 µM (inactive)	2.59 µM (inactive)	2.28 µM (inactive)	0.773 µM (active)	2.08 µM (inactive)	0.361 µM (active)	0.422 µM (active)	0.448 µM (active)	2.98 µM (inactive)	3.09 µM (inactive)	0.296 µM (active)	0.495 µM (active)	0.532 µM (active)	0.865 µM (active)	1 µM (active)	0.298	–
COC1CC(=O)C2C(=O)N(c3ccccc3)C(=O)C23C(C(=O)c2ccccc2)=C(C)NC13O (stereo not given)	5.32 µM (inactive)	3.84 µM (inactive)	–	–	–	–	19.9 µM (inactive)	11 µM (inactive)	5.02 µM (inactive)	–	9.2 µM (inactive)	16.6 µM (inactive)	15.3 µM (inactive)	18 µM (inactive)	< 0.01 µM (active)	5.08 µM (inactive)	12.3 µM (inactive)	2.12 µM (inactive)	8.49	17.2 µM (inactive)
Cc1c2c(n(CCN(C)C)c1C)NN=C(C#N)S2(=O)=O	> 100 µM (inactive)	> 100 µM (inactive)	> 100 µM (inactive)	> 100 µM (inactive)	–	–	> 100 µM (inactive)	> 100 µM (inactive)	> 100 µM (inactive)	> 100 µM (inactive)	> 100 µM (inactive)	> 100 µM (inactive)	> 100 µM (inactive)	> 100 µM (inactive)	> 100 µM (inactive)	> 100 µM (inactive)	> 100 µM (inactive)	> 100 µM (inactive)	> 100	–
O=C1CSC(c2ccc(Cl)cc2Cl)N1c1ccc(Oc2ccc(Cl)cc2)c(Cl)c1 (stereo not given)	21.6 µM (inactive)	16 µM (inactive)	22.1 µM (inactive)	31 µM (inactive)	16.4 µM (inactive)	–	30.7 µM (inactive)	39.4 µM (inactive)	36.5 µM (inactive)	24.3 µM (inactive)	16.9 µM (inactive)	37.7 µM (inactive)	27 µM (inactive)	20.2 µM (inactive)	26.2 µM (inactive)	13.8 µM (inactive)	25.5 µM (inactive)	17.5 µM (inactive)	25.6	–
CSC1=Nc2ccccc2N(C)c2c1c(-c1ccccc1)nn2C	63.7 µM (inactive)	17 µM (inactive)	–	13.3 µM (inactive)	15.2 µM (inactive)	15.6 µM (inactive)	37.3 µM (inactive)	> 100 µM (inactive)	40.6 µM (inactive)	8.99 µM (inactive)	22.1 µM (inactive)	54.5 µM (inactive)	14.1 µM (inactive)	21.8 µM (inactive)	17.8 µM (inactive)	12.7 µM (inactive)	38 µM (inactive)	–	56.9	–
Cc1ccc([N+](=O)[O-])cc1S(=O)(=O)Nc1ccc(C2=NN(c3ccc([N+](=O)[O-])cc3[N+](=O)[O-])C(c3ccccc3)C2)cc1 (stereo not given)	20.3 µM (inactive)	13.1 µM (inactive)	17.4 µM (inactive)	–	20.3 µM (inactive)	14.8 µM (inactive)	21 µM (inactive)	34.5 µM (inactive)	32.5 µM (inactive)	16.8 µM (inactive)	13 µM (inactive)	17.2 µM (inactive)	14.6 µM (inactive)	18.3 µM (inactive)	16 µM (inactive)	9.27 µM (inactive)	19.2 µM (inactive)	15.4 µM (inactive)	14.6	–
COc1ccc(CCC2NCCc3cc(OC)c(OC)cc32)cc1 (stereo not given)	> 100 µM (inactive)	> 100 µM (inactive)	–	> 100 µM (inactive)	–	–	–	> 100 µM (inactive)	> 100 µM (inactive)	> 100 µM (inactive)	> 100 µM (inactive)	> 100 µM (inactive)	> 100 µM (inactive)	> 100 µM (inactive)	> 100 µM (inactive)	> 100 µM (inactive)	–	> 100 µM (inactive)	> 100	> 100 µM (inactive)
CCOP(=O)(OCC)C(Cc1c[nH]c2ccccc12)C(=O)O (stereo not given)	–	–	> 100 µM (inactive)	> 100 µM (inactive)	> 100 µM (inactive)	–	> 100 µM (inactive)	> 100 µM (inactive)	> 100 µM (inactive)	> 100 µM (inactive)	> 100 µM (inactive)	> 100 µM (inactive)	> 100 µM (inactive)	–	> 100 µM (inactive)	> 100 µM (inactive)	> 100 µM (inactive)	–	> 100	> 100 µM (inactive)
N#CN=C(N(Cc1ccccc1)Cc1ccccc1)N(Cc1ccccc1)Cc1ccccc1	46.7 µM (inactive)	> 100 µM (inactive)	32.5 µM (inactive)	47 µM (inactive)	5.14 µM (inactive)	–	21.8 µM (inactive)	–	9.82 µM (inactive)	2.74 µM (inactive)	3.51 µM (inactive)	23.4 µM (inactive)	–	11.9 µM (inactive)	4.36 µM (inactive)	3.88 µM (inactive)	11.7 µM (inactive)	–	6.37	14.7 µM (inactive)
Oc1ccccc1C1C=C(c2ccccc2)NC(N2CCCCC2)=C1c1nc2ccccc2[nH]1 (stereo not given)	15.9 µM (inactive)	13.2 µM (inactive)	16.7 µM (inactive)	3.08 µM (inactive)	14.2 µM (inactive)	11.4 µM (inactive)	13.5 µM (inactive)	15.9 µM (inactive)	16.3 µM (inactive)	13.7 µM (inactive)	11.7 µM (inactive)	16.1 µM (inactive)	15.3 µM (inactive)	16.6 µM (inactive)	8.05 µM (inactive)	9.57 µM (inactive)	2.19 µM (inactive)	12.7 µM (inactive)	18.2	–
O=C(c1cccs1)N(C(=S)N1CCN(c2ccccc2)CC1)c1ccccc1	> 100 µM (inactive)	> 100 µM (inactive)	47.6 µM (inactive)	–	> 100 µM (inactive)	> 100 µM (inactive)	> 100 µM (inactive)	> 100 µM (inactive)	> 100 µM (inactive)	> 100 µM (inactive)	> 100 µM (inactive)	> 100 µM (inactive)	> 100 µM (inactive)	> 100 µM (inactive)	> 100 µM (inactive)	> 100 µM (inactive)	> 100 µM (inactive)	> 100 µM (inactive)	> 100	–
CC(NC(=O)c1ccc(OP(=O)(OCC2=CC(=O)c3ccccc3C2=O)N(C)CCCCCl)cc1)c1ccc(OCC2CCCCC2)c(C(N)=O)c1 (stereo not given)	15.2 µM (inactive)	13.4 µM (inactive)	11.1 µM (inactive)	0.0149 µM (active)	14.5 µM (inactive)	–	15.4 µM (inactive)	14.2 µM (inactive)	12.4 µM (inactive)	12.3 µM (inactive)	14.3 µM (inactive)	13.4 µM (inactive)	2.7 µM (inactive)	12 µM (inactive)	17.4 µM (inactive)	11.2 µM (inactive)	7.28 µM (inactive)	14.6 µM (inactive)	12.2	–
